Data on 14 compounds can be found in publication PMC2913396 (Molecular Systems Biology, 2010).

“Also recorded” adds a separate entry of the source.

The subject of data set [1] is HCV genotype 1b subgenomic replicon in Huh-luc/neo-ET cells. As to the kind of experiment: cHTS luciferase assay. Format: cell-based, hepatitis C virus. The following applies: for effect on replicon replication (in words): single agent, 48 h luciferase. (In general: In antiviral work, replicon cells carry a viral genome segment that copies itself.)
The test system of a further data set is Huh-7 cells. Put plainly: host proliferation counterscreen measuring cellular ATP levels. Format: cell-based, human. The following applies: 48 h.
Another data set has as its system HMGCR. Put plainly: HMGCR protein expression by western blot. The data set is classed as cell-based, human. To be noted: Huh-7 cells, 16 h. On the technique in general: A western blot detects proteins with antibodies after separation by electrophoresis.
Data set [2] deals with HCV replicon RNA in Huh-luc/neo-ET cells. As to the kind of experiment: replicon RNA copy number by quantitative RT-PCR. Format: cell-based, hepatitis C virus. The following applies: 72 h, normalized to total RNA.
The conditions of data set [3]: ref Pyrah et al, 2001; Cenedella et al, 2004; cited from earlier work.

As for `CC(C)CCC[C@@H](C)[C@H]1CC(=O)C2=C3CC[C@H]4C[C@@H](O)CC[C@]4(C)[C@H]3CC[C@@]21C` [Colestolone], the “effect on replicon replication (in words)” value in data set [1] was “inhibited HCV replication with marginal impact on host cell ATP levels”. On the same count and under the same terms, for `COC(=O)[C@H](CC(C)C)NC(=O)c1ccc(NC[C@@H](N)CS)cc1-c1ccccc1` [GGTI-286] the value was “antiviral activity”. With `CCN(CC)CCOc1ccc(C(=C(Cl)c2ccccc2)c2ccccc2)cc1` [Clomiphene], the “effect on host cell ATP levels (in words)” value in the data set with Huh-7 cells is given as “reduce host cell ATP levels”. For `CCOP(=O)(OCC)C(=Cc1cc(C(C)(C)C)c(O)c(C(C)(C)C)c1)P(=O)(OCC)OCC` [SR-12813], the “effect on replicon replication (in words)” value in data set [1] is listed as “strongly promoted replicon replication”. With `C=C(CC[C@]12O[C@H](C(=O)O)[C@@](O)(C(=O)O)[C@](C(=O)O)(O1)[C@H](OC(=O)/C=C/[C@@H](C)C[C@@H](C)CC)[C@H]2O)[C@@H](OC(C)=O)[C@H](C)Cc1ccccc1` [Squalestatin], in data set [1], the “effect on replicon replication (in words)” value was “strongly promoted replicon replication”. Also, in the data set on HMGCR, the “HMGCR protein expression (in words)” value was “overexpression of HMGCR”. In data set [2], the “replicon RNA copy number, RT-qPCR (in words)” value is “proviral effects”. For `CCN(CC)CCO[C@H]1CC[C@@]2(C)C(=CC[C@@H]3[C@@H]2CC[C@]2(C)C(=O)CC[C@@H]32)C1.Cl` [U18666A], the “IC50 of HCV replication inhibition (in words)” value in data set [1] (48 h) is reported as “nM range”. Moreover, in data set [1], the “effect on replicon replication (in words)” value was “inhibited HCV replication with marginal impact on host cell ATP levels”. Besides, in the data set with HMGCR, the “HMGCR protein expression (in words)” value was “overexpression of HMGCR”. Besides, in data set [3], the side effects entry is “rapid induction of cataracts and irreversible lens damage in animals”. Take `CC(Cc1ccc(C(C)(C)C)cc1)CN1C[C@@H](C)O[C@@H](C)C1` (stereo partly shown) [Fenpropimorph]: the “effect on replicon replication (in words)” value in data set [1] was “inhibited HCV replication with marginal impact on host cell ATP levels”. The same measure, in the same setting: for `CC(C)=CCC/C(C)=C/CC/C(C)=C/CO` [Farnesol] the value was “strongly promoted replicon replication”; for `CCC(C)(C)c1ccc(CC(C)CN2C[C@@H](C)O[C@@H](C)C2)cc1` (stereo partly shown) [Amorolfine], “inhibited HCV replication with marginal impact on host cell ATP levels”. On to `NCCCC(O)(P(=O)(O)O)P(=O)(O)O` [Alendronate], for which the “effect on host cell ATP levels (in words)” value with Huh-7 cells is “reduce host cell ATP levels”.

On to `CC(C)N1CCN(c2ccc(OCC3COC(Cn4cncn4)(c4ccc(Cl)cc4Cl)O3)cc2)CC1` (stereo not shown) [Terconazole], for which, in the data set on Huh-7 cells, the “effect on host cell ATP levels (in words)” value was “reduce host cell ATP levels”.

Turning to `CC(C)n1c(/C=C/C(O)CC(O)CC(=O)O)c(-c2ccc(F)cc2)c2ccccc21` (stereo not shown) [fluvastatin], the “effect on replicon replication (in words)” value in data set [1] was “proviral effect”. For the compound `CCC(C)(C)C(=O)O[C@H]1C[C@@H](C)C=C2C=C[C@H](C)[C@H](CC[C@@H]3C[C@@H](O)CC(=O)O3)[C@H]21` [Simvastatin], in data set [1], the “effect on replicon replication (in words)” value is “proviral effect; also recorded: increased HCV replication”. For the same compound, in the data set with Huh-7 cells, the “effect on host cell ATP levels (in words)” value is recorded as “correlate with a reduction in host cell ATP levels”. Further, the “HMGCR protein expression (in words)” value in the data set on HMGCR is on record as “apparent overexpression of HMGCR”. Further, in data set [2], the “replicon RNA copy number, RT-qPCR (in words)” value is “proviral effects”. As for `CCCCCCCCCCCCCCOc1ccc(C(=O)O)o1` [TOFA], the “effect on host cell ATP levels (in words)” value in the data set on Huh-7 cells is given as “modest depletion of ATP at most antiviral concentrations”.
